{
  "source": "patent US8440671B2",
  "about": "“Compositions comprising a phoshodiesterase-5 inhibitor and their use in methods of treatment” (priority 2007, dated 2013)",
  "key": {"[1]": {"system": "subject with rapidly progressive multi-system neurodegenerative disease, facial acne, vitiligo, gingival infections", "assay_type": "in vivo", "settings": "for clinical response to neurological disease, skin and mucous membrane disorders: each drug given individually; for substitution within the oral combination: Viagra 50 mg TID for oral Cialis, Paxil 20 mg TID for Luvox", "source_text": "A second subject was diagnosed with nonspecific but rapidly progressive multi-system neurodegenerative disease. […] Initial presentation was with abrupt onset dementia with rapid progression over 3-4 months. Severe, generalized myoclonus of high amplitude with ataxia, dyspahagia, central and peripheral respiratory distress (requiring CPAP), dizziness, and hypokinetic rigidity followed some one month later and have continued to progress as well as dementia.\nMild intermittent gingival infections requiring minimal surgical intervention with retraction from tooth line for over ten years.\nPatient was a non-smoker with no alcohol or other drug consumption. Patient suffered from coexisting prior problem of chronic atrial fibrillation, currently rate controlled with exercise alone and anticoagulation intermittently with Coumadin.\nThe twenty four hour doses, put into 7.5 cc of water solution, was also applied topically to scar noted previously. […] Patient also takes Folic acid—1 mg per day, and Vitamin B6."}, "[2]": {"system": "subject with Alzheimer's Disease and dementia", "settings": "for clinical status changes: cholinesterase inhibitor alone", "source_text": "A fifth subject was diagnosed with Alzheimer's Disease and dementia and administered a combination of PI-5, SSRI and CI."}, "[3]": {"system": "subject with Parkinson's Disease", "test": "Example 4: case report, subject with Parkinson's Disease given PI-5, SSRI and DI", "source_text": "A fourth subject was diagnosed with Parkinson's Disease and administered a combination of PI-5, SSRI and DI."}, "[4]": {"system": "subject with atypical Parkinson's Disease, severe seborrheic dermatitis and scarring facial acne rosacea", "assay_type": "in vivo", "source_text": "A third subject was diagnosed with atypical Parkinson's Disease with an initial presentation fifteen years earlier with cogwheel type diffuse tremor of low amplitude, diffuse muscular rigidity, mild bradykinesia, gait abnormalities.\nPatient is a non-smoker and social drinker with minimal alcohol consumption and no history of drug abuse. Chronic problems of borderline hypertension (treated with diet and HYTRIN® (terazoin)), benign prostatic hypertrophy (treated with HYTRIN® (terazoin) and voding training), GERD treated intermittently as needed with PRILOSEC® (omeprazole) plus PEPCID® (famotidine) for short periods, DJD of cervical and lumbar spine treated intermittently with physical therapy, TYLENOL® (acetaminophen), occasional VICODIN® (acetaminophen/hydrocodone) as needed."}},
  "data": [
    {"smiles": "Nc1c2c(nc3ccccc13)CCCC2", "note": "[COGNEX® (tacrine), tacrine]", "values": [
      {"measurement": "clinical response to neurological disease, skin and mucous membrane disorders", "setting": "[1]", "value": "without any clinical response"},
      {"measurement": "clinical status changes", "setting": "[2]", "value": "without significant clinical status changes"},
      {"measurement": "effect on all symptoms when added to the regimen", "setting": "[3]; added to Luvox, Cialis, Sinemet regimen", "value": "mild improvements"},
      {"measurement": "tolerability when added to the regimen", "setting": "[3]; human, in vivo", "value": "discontinued secondary to gastrointestinal upset"}
    ]},
    {"smiles": "COc1cc2c(cc1OC)C(=O)C(CC1CCN(Cc3ccccc3)CC1)C2", "note": "(centres unmarked) [ARICEPT® (donepezil), donepezil]", "values": [
      {"measurement": "clinical status changes", "setting": "[2]", "value": "without significant clinical status changes"},
      {"measurement": "substitution for COGNEX within the combination", "setting": "[2]; two week period, without noticeable changes", "value": "successfully substituted"}
    ]},
    {"smiles": "CN1CCc2cccc3c2[C@H]1Cc1ccc(O)c(O)c1-3", "note": "[Apomorphine, apomorphine]", "values": [
      {"measurement": "paradoxical response to IV Apomorphine", "setting": "[4]; IV, part of work-up", "value": "decreased blood pressure and worsening of rigidity and tremor"}
    ]},
    {"smiles": "NC12CC3CC(CC(C3)C1)C2", "note": "[Amantadine, amantadine]", "values": [
      {"measurement": "change in seborrheic dermatitis or acne rosacea", "setting": "[4]; chronic low-dose treatment", "value": "No change"},
      {"measurement": "improvement of all symptoms", "setting": "[4]; chronic low-dose treatment", "value": "little or no improvement"}
    ]},
    {"smiles": "COCCCC/C(=N\\OCCN)c1ccc(C(F)(F)F)cc1", "note": "[LUVOX® (fluvoxamine), fluvoxamine]", "values": [
      {"measurement": "clinical response to neurological disease, skin and mucous membrane disorders", "setting": "[1]", "value": "without any clinical response"}
    ]},
    {"smiles": "Fc1ccc([C@@H]2CCNC[C@H]2COc2ccc3c(c2)OCO3)cc1", "note": "[Paxil, paroxetine]", "values": [
      {"measurement": "substitution within the oral combination", "setting": "[1]", "value": "equivalently substituted"}
    ]},
    {"smiles": "CC(C)C[C@H]1C(=O)N2CCC[C@H]2[C@]2(O)O[C@](NC(=O)[C@@H]3C=C4c5cccc6[nH]c(Br)c(c56)C[C@H]4N(C)C3)(C(C)C)C(=O)N12", "note": "[Bromocriptine, bromocriptine]", "values": [
      {"measurement": "change on short periods of treatment", "setting": "[3]; short periods later in disease", "value": "without significant change"}
    ]},
    {"smiles": "CCCc1nn(C)c2c(=O)[nH]c(-c3cc(S(=O)(=O)N4CCN(C)CC4)ccc3OCC)nc12", "note": "[VIAGRA® (sildenafil), sildenafil]", "values": [
      {"measurement": "substitution within the oral combination", "setting": "[1]", "value": "equivalently substituted"},
      {"measurement": "clinical response to neurological disease, skin and mucous membrane disorders", "setting": "[1]", "value": "without any clinical response"}
    ]}
  ]
}
